# According to ChEMBL document CHEMBL1143353, “Pyrazolo[1,5-a]-1,3,5-triazine as a purine bioisostere: access to potent cyclin-dependent kinase inhibitor (R)-roscovitine analogue” (J Med Chem, 2009):
# Assays:
# HT-29 = assay: cells; conditions: Homo sapiens, HT-29, 72 h
# Description: Antiproliferative activity against human HT29 cells after 72 hrs by ViaLight assay
# NCI-H226 = assay: cells; conditions: Homo sapiens, NCI-H226, 72 h
# Description: Antiproliferative activity against human NCI-H226 cells after 72 hrs by ViaLight assay
# DU-145 = assay: cells; conditions: Homo sapiens, DU-145, 72 h
# Description: Antiproliferative activity against human DU145 cells after 72 hrs by ViaLight assay
# Raji = assay: Antiproliferative activity against human Raji cells after 72 hrs by ViaLight assay; type: functional, cell-based
# LOX IMVI = assay: cells; conditions: Homo sapiens, 72 h
# Description: Antiproliferative activity against human LOXIMVI cells after 72 hrs by ViaLight assay
# NCI-H322M = assay: cells; conditions: Homo sapiens, 72 h
# Description: Antiproliferative activity against human NCI-H322M cells after 72 hrs by ViaLight assay
# NCI-H460 = assay: cells; conditions: Homo sapiens, NCI-H460, 72 h
# Description: Antiproliferative activity against human NCI-H460 cells after 72 hrs by ViaLight assay
# CAKI-1 = assay: cells; conditions: Homo sapiens, CAKI-1, 72 h
# Description: Antiproliferative activity against human Caki1 cells after 72 hrs by ViaLight assay
# HEK293 = assay: Antiproliferative activity against human HEK293 cells after 48 hrs by MTS reduction assay; type: cell-based; conditions: HEK293, 48 h
# A498 = assay: cells; conditions: Homo sapiens, A498, 72 h
# Description: Antiproliferative activity against human A498 cells after 72 hrs by ViaLight assay
# OVCAR-3 = assay: cells; conditions: Homo sapiens, OVCAR-3, 72 h
# Description: Antiproliferative activity against human OVCAR-3 cells after 72 hrs by ViaLight assay
# HOP-62 = assay: cells; conditions: Homo sapiens, HOP-62, 72 h
# Description: Antiproliferative activity against human HOP62 cells after 72 hrs by ViaLight assay
# EKVX = assay: cells; conditions: Homo sapiens, 72 h
# Description: Antiproliferative activity against human EKVX cells after 72 hrs by ViaLight assay
# MDA-MB-468 = assay: cells; conditions: Homo sapiens, MDA-MB-468, 72 h
# Description: Antiproliferative activity against human MDA-MB-468 cells after 72 hrs by ViaLight assay
# 786-0 = assay: cells; conditions: Homo sapiens, 786-0, 72 h
# Description: Antiproliferative activity against human 786-0 cells after 72 hrs by ViaLight assay
# U-937 = assay: Antiproliferative activity against human U937 cells after 72 hrs by ViaLight assay; type: functional, cell-based
# MOLT-4 = assay: cells; conditions: Homo sapiens, MOLT-4, 72 h
# Description: Antiproliferative activity against human MOLT4 cells after 72 hrs by ViaLight assay
# cells [1] = conditions: Homo sapiens, Hs-578T, 72 h
# Description: Antiproliferative activity against human Hs 578T cells after 72 hrs by ViaLight assay
# ACHN = assay: cells; conditions: Homo sapiens, 72 h
# Description: Antiproliferative activity against human ACHN cells after 72 hrs by ViaLight assay
# HCC 2998 = assay: cells; conditions: Homo sapiens, HCC 2998, 72 h
# Description: Antiproliferative activity against human HCC2998 cells after 72 hrs by ViaLight assay
# cells [2] = conditions: Homo sapiens, HL-60, 72 h
# Description: Antiproliferative activity against human HL60(TB) cells after 72 hrs by ViaLight assay
# KM12 = assay: cells; conditions: Homo sapiens, KM12, 72 h
# Description: Antiproliferative activity against human KM12 cells after 72 hrs by ViaLight assay
# SF-268 = assay: cells; conditions: Homo sapiens, SF-268, 72 h
# Description: Antiproliferative activity against human SF268 cells after 72 hrs by ViaLight assay
# HOP-92 = assay: cells; conditions: Homo sapiens, HOP-92, 72 h
# Description: Antiproliferative activity against human HOP92 cells after 72 hrs by ViaLight assay
# HEK-293T = assay: Antiproliferative activity against human 293T cells after 72 hrs by ViaLight assay; type: functional, cell-based
# [3] = target: Cyclin-dependent kinase 5/CDK5 activator 1 (Homo sapiens, UniProt Q00535)
# Sequence of Cyclin-dependent kinase 5/CDK5 activator 1 (Q00535 whole entry): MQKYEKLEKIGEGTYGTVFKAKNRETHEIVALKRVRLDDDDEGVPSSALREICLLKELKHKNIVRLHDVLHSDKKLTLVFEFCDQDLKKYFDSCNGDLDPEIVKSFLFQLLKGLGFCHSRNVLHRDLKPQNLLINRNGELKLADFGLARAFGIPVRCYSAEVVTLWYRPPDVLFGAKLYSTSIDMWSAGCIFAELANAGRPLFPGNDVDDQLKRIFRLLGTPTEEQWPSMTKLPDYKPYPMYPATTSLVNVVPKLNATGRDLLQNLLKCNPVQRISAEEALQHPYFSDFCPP
# Sequence of Cyclin-dependent kinase 5/CDK5 activator 1 (Q15078 whole entry, further chain): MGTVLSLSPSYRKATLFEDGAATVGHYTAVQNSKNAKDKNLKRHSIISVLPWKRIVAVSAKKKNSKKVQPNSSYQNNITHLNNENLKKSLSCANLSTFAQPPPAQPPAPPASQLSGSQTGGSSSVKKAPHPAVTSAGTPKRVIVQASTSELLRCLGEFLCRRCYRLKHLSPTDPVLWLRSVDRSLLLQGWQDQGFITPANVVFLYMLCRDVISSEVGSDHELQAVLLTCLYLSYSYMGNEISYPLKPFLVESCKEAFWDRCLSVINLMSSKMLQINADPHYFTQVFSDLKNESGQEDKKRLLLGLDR
# Description: Inhibition of human recombinant CDK5/p25 expressed in Escherichia coli
# MDA-MB-435 = assay: cells; conditions: Homo sapiens, MDA-MB-435, 72 h
# Description: Antiproliferative activity against human MDA-MB-435 cells after 72 hrs by ViaLight assay
# NCI-H522 = assay: cells; conditions: Homo sapiens, NCI-H522, 72 h
# Description: Antiproliferative activity against human NCI-H522 cells after 72 hrs by ViaLight assay
# K562 = assay: cells; conditions: Homo sapiens, K562, 72 h
# Description: Antiproliferative activity against human K562 cells after 72 hrs by ViaLight assay
# SNB-19 = assay: cells; conditions: Homo sapiens, SNB-19, 72 h
# Description: Antiproliferative activity against human SNB19 cells after 72 hrs by ViaLight assay
# SW-620 = assay: cells; conditions: Homo sapiens, SW-620, 72 h
# Description: Antiproliferative activity against human SW620 cells after 72 hrs by ViaLight assay
structure (smiles),measurement,setting,value
CC[C@H](CO)Nc1nc(NCc2ccccc2)n2ncc(C(C)C)c2n1,GI50,HT-29,2 µM
same,TGI,HT-29,15.5 µM
same,CC50,HT-29; read-out: LC50,> 100 µM
same,GI50,HT-29; read-out: pGI50 (converted),2 µM
same,CC50,HT-29; read-out: pLC50 (converted),100 µM
same,TGI,HT-29; read-out: pTGI,15.5 µM
same,GI50,NCI-H226,1.84 µM
same,TGI,NCI-H226,10.1 µM
same,CC50,NCI-H226; read-out: LC50,> 100 µM
same,GI50,NCI-H226; read-out: pGI50 (converted),1.86 µM
same,CC50,NCI-H226; read-out: pLC50 (converted),100 µM
same,TGI,NCI-H226; read-out: pTGI,10.5 µM
same,GI50,DU-145,1.3 µM
same,TGI,DU-145,9.52 µM
same,CC50,DU-145; read-out: LC50,> 100 µM
same,GI50,DU-145; read-out: pGI50 (converted),2.63 µM
same,CC50,DU-145; read-out: pLC50 (converted),100 µM
same,TGI,DU-145; read-out: pTGI,9.55 µM
same,Activity,Raji,Dose-dependent effect
same,GI50,LOX IMVI,1.07 µM
same,TGI,LOX IMVI,10.3 µM
same,CC50,LOX IMVI; read-out: LC50,34.4 µM
same,GI50,LOX IMVI; read-out: pGI50 (converted),1.07 µM
same,CC50,LOX IMVI; read-out: pLC50 (converted),34.7 µM
same,TGI,LOX IMVI; read-out: pTGI,10.2 µM
same,GI50,NCI-H322M,1.86 µM
same,TGI,NCI-H322M,8.92 µM
same,CC50,NCI-H322M; read-out: LC50,> 100 µM
same,GI50,NCI-H322M; read-out: pGI50 (converted),1.86 µM
same,CC50,NCI-H322M; read-out: pLC50 (converted),100 µM
same,TGI,NCI-H322M; read-out: pTGI,8.91 µM
same,GI50,NCI-H460,1.05 µM
same,TGI,NCI-H460,10.9 µM
same,CC50,NCI-H460; read-out: LC50,> 100 µM
same,GI50,NCI-H460; read-out: pGI50 (converted),1.05 µM
same,CC50,NCI-H460; read-out: pLC50 (converted),100 µM
same,TGI,NCI-H460; read-out: pTGI,11 µM
same,GI50,CAKI-1,1.02 µM
same,TGI,CAKI-1,8.35 µM
same,CC50,CAKI-1; read-out: LC50,> 100 µM
same,GI50,CAKI-1; read-out: pGI50 (converted),1.05 µM
same,CC50,CAKI-1; read-out: pLC50 (converted),100 µM
same,TGI,CAKI-1; read-out: pTGI,8.13 µM
same,IC50,HEK293,7.6 µM
same,GI50,A498,1.25 µM
same,TGI,A498,3.44 µM
same,CC50,A498; read-out: LC50,9.47 µM
same,GI50,A498; read-out: pGI50 (converted),1.12 µM
same,CC50,A498; read-out: pLC50 (converted),9.55 µM
same,TGI,A498; read-out: pTGI,3.31 µM
same,GI50,OVCAR-3,1.15 µM
same,TGI,OVCAR-3,4.6 µM
same,CC50,OVCAR-3; read-out: LC50,42.4 µM
same,GI50,OVCAR-3; read-out: pGI50 (converted),1.45 µM
same,CC50,OVCAR-3; read-out: pLC50 (converted),42.7 µM
same,TGI,OVCAR-3; read-out: pTGI,4.57 µM
same,GI50,HOP-62,2.1 µM
same,TGI,HOP-62,8.72 µM
same,CC50,HOP-62; read-out: LC50,> 100 µM
same,GI50,HOP-62; read-out: pGI50 (converted),2.09 µM
same,CC50,HOP-62; read-out: pLC50 (converted),100 µM
same,TGI,HOP-62; read-out: pTGI,1.1 µM
same,GI50,EKVX,2.41 µM
same,TGI,EKVX,9.13 µM
same,GI50,EKVX; read-out: pGI50 (converted),2.4 µM
same,TGI,EKVX; read-out: pTGI,9.12 µM
same,GI50,MDA-MB-468,1.88 µM
same,TGI,MDA-MB-468,5.19 µM
same,CC50,MDA-MB-468; read-out: LC50,63.5 µM
same,GI50,MDA-MB-468; read-out: pGI50 (converted),1.86 µM
same,CC50,MDA-MB-468; read-out: pLC50 (converted),63.1 µM
same,TGI,MDA-MB-468; read-out: pTGI,5.25 µM
same,GI50,786-0,1.98 µM
same,TGI,786-0,10.7 µM
same,CC50,786-0; read-out: LC50,> 100 µM
same,GI50,786-0; read-out: pGI50 (converted),1.86 µM
same,CC50,786-0; read-out: pLC50 (converted),100 µM
same,TGI,786-0; read-out: pTGI,0.135 µM
same,Activity,U-937,Dose-dependent effect
same,GI50,MOLT-4,2.18 µM
same,TGI,MOLT-4,9.45 µM
same,CC50,MOLT-4; read-out: LC50,> 100 µM
same,GI50,MOLT-4; read-out: pGI50 (converted),2.19 µM
same,CC50,MOLT-4; read-out: pLC50 (converted),100 µM
same,TGI,MOLT-4; read-out: pTGI,9.55 µM
same,GI50,cells [1],1.59 µM
same,TGI,cells [1],6.16 µM
same,CC50,cells [1]; read-out: LC50,> 100 µM
same,GI50,cells [1]; read-out: pGI50 (converted),1.58 µM
same,CC50,cells [1]; read-out: pLC50 (converted),100 µM
same,TGI,cells [1]; read-out: pTGI,6.17 µM
same,GI50,ACHN,0.81 µM
same,TGI,ACHN,10.7 µM
same,CC50,ACHN; read-out: LC50,49.1 µM
same,GI50,ACHN; read-out: pGI50 (converted),0.813 µM
same,CC50,ACHN; read-out: pLC50 (converted),49 µM
same,TGI,ACHN; read-out: pTGI,10.7 µM
same,GI50,HCC 2998,1.2 µM
same,TGI,HCC 2998,3.27 µM
same,CC50,HCC 2998; read-out: LC50,8.96 µM
same,GI50,HCC 2998; read-out: pGI50 (converted),1.2 µM
same,CC50,HCC 2998; read-out: pLC50 (converted),8.71 µM
same,TGI,HCC 2998; read-out: pTGI,3.24 µM
same,GI50,cells [2],0.41 µM
same,TGI,cells [2],2.68 µM
same,CC50,cells [2]; read-out: LC50,> 100 µM
same,GI50,cells [2]; read-out: pGI50 (converted),0.407 µM
same,CC50,cells [2]; read-out: pLC50 (converted),100 µM
same,TGI,cells [2]; read-out: pTGI,2.69 µM
same,GI50,KM12,0.71 µM
same,TGI,KM12,2.79 µM
same,CC50,KM12; read-out: LC50,9.3 µM
same,GI50,KM12; read-out: pGI50 (converted),0.708 µM
same,CC50,KM12; read-out: pLC50 (converted),9.77 µM
same,TGI,KM12; read-out: pTGI,2.82 µM
same,GI50,SF-268,1.82 µM
same,TGI,SF-268,7.2 µM
same,CC50,SF-268; read-out: LC50,> 100 µM
same,GI50,SF-268; read-out: pGI50 (converted),1.82 µM
same,CC50,SF-268; read-out: pLC50 (converted),100 µM
same,TGI,SF-268; read-out: pTGI,7.24 µM
same,GI50,HOP-92,1.67 µM
same,TGI,HOP-92,7.1 µM
same,CC50,HOP-92; read-out: LC50,> 100 µM
same,GI50,HOP-92; read-out: pGI50 (converted),1.66 µM
same,CC50,HOP-92; read-out: pLC50 (converted),100 µM
same,TGI,HOP-92; read-out: pTGI,7.08 µM
same,Activity,HEK-293T,Dose-dependent effect
same,IC50,[3],0.07 µM
same,GI50,MDA-MB-435,2.06 µM
same,TGI,MDA-MB-435,10.1 µM
same,CC50,MDA-MB-435; read-out: LC50,41.4 µM
same,GI50,MDA-MB-435; read-out: pGI50 (converted),2.09 µM
same,CC50,MDA-MB-435; read-out: pLC50 (converted),41.7 µM
same,TGI,MDA-MB-435; read-out: pTGI,10 µM
same,GI50,NCI-H522,1.46 µM
same,TGI,NCI-H522,8.98 µM
same,CC50,NCI-H522; read-out: LC50,> 100 µM
same,GI50,NCI-H522; read-out: pGI50 (converted),1.45 µM
same,CC50,NCI-H522; read-out: pLC50 (converted),100 µM
same,TGI,NCI-H522; read-out: pTGI,8.91 µM
same,GI50,K562,2.44 µM
same,TGI,K562,7.38 µM
same,CC50,K562; read-out: LC50,> 100 µM
same,GI50,K562; read-out: pGI50 (converted),2.45 µM
same,CC50,K562; read-out: pLC50 (converted),100 µM
same,TGI,K562; read-out: pTGI,7.41 µM
same,GI50,SNB-19,1.44 µM
same,TGI,SNB-19,12.3 µM
same,CC50,SNB-19; read-out: LC50,> 100 µM
same,GI50,SNB-19; read-out: pGI50 (converted),1.15 µM
same,CC50,SNB-19; read-out: pLC50 (converted),100 µM
same,TGI,SNB-19; read-out: pTGI,12.3 µM
same,GI50,SW-620,1.38 µM
same,TGI,SW-620,5.56 µM
same,CC50,SW-620; read-out: LC50,> 100 µM
same,GI50,SW-620; read-out: pGI50 (converted),1.12 µM
same,CC50,SW-620; read-out: pLC50 (converted),100 µM
same,TGI,SW-620; read-out: pTGI,5.5 µM
